Results taken from US10434076B2, “Use of 2,5-dihydroxybenzene derivatives for treating dermatitis” (AmDerma Pharmaceuticals, LLC, priority 2006, dated 2019).
Entries after “also recorded” stand apart in the source; their conditions may differ.

Key:
[1] = system: dermatitis induced by the application of benzalkonium chloride on the rat ears; assay: Benzalkonium chloride induced dermatitis on rat ears, Evans blue dye extravasation; type: in vivo; details: for percentage of the area stained in blue compared to the total area of the ear (dermatitis extent): treated vs untreated ear
Experimental: Dermatitis was induced by the application of benzalkonium chloride, 5% solution (w/v) (1:5 olive oil:acetone) on the entire extent of the back part of the car ([…]) in anesthetized rats. Dermatitis was induced in both ears. In the assay of 2,5-dihydroxybenzenesulfonate (DHBS), a cream containing 5% of DHBS (w/w) was applied topically only on the back part of the right ear, 30 minutes after the application of benzalkonium chloride. Fifteen minutes later, 0.5% by weight of Evans blue dye solution (400 μL per animal) was injected into the jugular vein. […] Therefore, it can be stated that topical application of 5% DHBS reduced the dermatitis extent.
This observation was confirmed upon quantification of dermatitis extent based on the area of the ear stained in blue with respect to the total area of the ear. Identically obtained photographs of the extended ears were processed in order to determine the stained area and the total area of the ear using a computer program to analyze images (Motic Image). The stained area of each ear was related to the total area to obtain the percentage of the ear affected by the dermatitis. […] 24 hours after dermatitis induction (FIG. 2B), these values were very similar.
Using the same procedure as in the former example, dermatitis was induced by the application of benzalkonium chloride, 5% solution (w/v) (1:5 olive oil:acetone) on the entire extent of the back part of the ear (40 μL/ear) in anesthetized rats. Dermatitis was induced in both ears. A cream containing 5% (w/v) of either 2-acetoxy-5-hydroxybenzenesulfonate (2A-5HBS) or 5-acetoxy-2-hydroxybenzenesulfonate (5A-2HBS) was applied topically only on the back part of the right ear, 30 minutes after the application of benzalkonium chloride. Fifteen minutes later, 0.5% (w/v) of Evans blue dye solution (400 μL per animal) was injected into the jugular vein. […] Therefore, it can be stated that topical application of 5% 2A-5HBS and 5% 5A-2HBS reduced the dermatitis extent.
This observation was confirmed upon quantification of dermatitis extent based on the area of the ear stained in blue with respect to the total area of the ear. Identically obtained photographs of the extended ears were processed in order to determine the stained area and the total area of the ear using a computer program to analyze images (Motic Image). The stained area of each car was related to the total area to obtain the percentage of the ear affected by the dermatitis.

[2] = biological target: Fibroblast Growth Factor-1 (FGF-1) (Homo sapiens, UniProt P05230); assay: Structural interaction with FGF-1 (diffraction of complex crystals); type: binding; details: electron density
Chain of Fibroblast Growth Factor-1 (FGF-1) (P05230 whole entry, species assumed): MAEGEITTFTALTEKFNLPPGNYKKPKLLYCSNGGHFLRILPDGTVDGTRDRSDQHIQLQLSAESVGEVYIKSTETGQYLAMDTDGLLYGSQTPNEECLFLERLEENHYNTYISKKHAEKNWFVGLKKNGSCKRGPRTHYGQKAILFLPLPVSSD
Experimental: As of the diffraction from complex crystals of FGF-1: 2-acetoxy-5-hydroxybenzenesulfonic acid, FGF-1; 5-acetoxy-2-hydroxybenzenesulfonic acid and FGF-1: 2,5-diacetoxybenzenesulfonic acid, the complex structures were calculated and represented. In FIGS. 10, 11 and 12, representing the surface of the protein coloured according to its electrostatic potential (light grey: negative charge, dark grey: positive charge, white: areas with no charge), the interaction form of the 2-acetoxy-5-hydroxybenzenesulfonic acid, 5-acetoxy-2-hydroxybenzenesulfonic acid and 2,5-diacetoxybenzenesulfonic acid, respectively, with the FGF-1 may be observed.

[3] = system: dermatitis induced by benzalkonium chloride on the ear of the rat; assay: Benzalkonium chloride induced dermatitis on rat ears, erythema and histological study; type: in vivo
Experimental: Using the same model, dermatitis was induced on both ears of two rats, following the same process described above. In this case, 30 minutes after the application of benzalkonium chloride, a rat was treated in both ears with a glycerol solution (FIG. 3A), while the other one was treated in both ears with a glycerol solution containing 2.5% (w/v) of 2,5-diacetoxybenzenesulfonate (DABS) (FIG. 3B).

[4] = system: myeloperoxidase (MPO) activity; assay: Myeloperoxidase (MPO) activity in the ear after benzalkonium chloride induced dermatitis; type: in vivo, rat; details: for increase in MPO activity in the ear caused by dermatitis: 24 hours after induction
Experimental: In this same model (Hyun E et al. Br J Pharmacol, 2004), dermatitis induction has been associated to an increase in the myeloperoxidase (MPO) activity in the ear, as a marker of leukocyte infiltration in the tissue affected with dermatitis. Based on these evidences, the effect of hydroxybenzene derivatives (i the activity of the MPO in the model described in this example was established. The MPO activity was determined in the ears of control rats (without dermatitis) and in ears on which dermatitis had been induced with benzalkonium chloride and had been treated with vehicle (anhydrous glycerol), 5% DHBS cream or DABS 2.5% solution in glycerol. The ears were frozen in liquid nitrogen 24 hours after the induction of dermatitis and were kept at −80° C. until determination of MPO activity. To determine the MPO activity, the frozen ears were homogenized in phosphate buffer with 0.5% of hexadecyltrimethylammonium bromide. After several freezing/thawing/sonication cycles, the samples were centrifuged at 13,000×g during 20 minutes at 4° C. H2O2 and O-dianisidine were added into the supernatants and the absorbance was measured at 460 nm in a spectrophotometer 1 hour after incubation at room temperature. The MPO activity is expressed as absorbance units per mg of tissue.

[5] = topical 5% (w/v) monoester on right ear vs untreated left ear, 24 hours after induction
[6] = topical 5% monoester solution, 24 hours after induction
[7] = topical 2.5% DABS in glycerol vs vehicle, tissues fixed 24 hours after induction

| Compound | blue stain extent (Evans blue dye extravasation), photographs [1, 5] | percentage of the area stained in blue compared to the total area of the ear (dermatitis extent) [1, 6] | acetoxyl groups kept when bound to FGF-1 [2] | location of the compound bound to FGF-1 [2] | erythema caused by the dermatitis ([3]; topical 2.5% (w/v) DABS in glycerol vs glycerol vehicle) | granulocytes adhered to the capillary endothelial cells (histological study) [3, 7] | leukocyte infiltration (histological study) [3, 7] | tissular edema (histological study) [3, 7] | efficacy on MPO activity relative to 5% DHBS ([4]; 2.5% DABS (half the amount of active principle) compared with 5% DHBS) | increase in MPO activity in the ear caused by dermatitis ([4]; topical 2.5% DABS solution in glycerol vs vehicle) | blue stain extent (Evans blue dye extravasation), photographs ([1]; topical cream 5% DHBS on right ear vs untreated left ear, 4 hours after dermatitis induction) | percentage of the area stained in blue compared to the total area of the ear (dermatitis extent) ([1]; topical cream 5% DHBS, 4 hours after induction) | increase in MPO activity in the ear caused by dermatitis ([4]; topical 5% DHBS cream vs vehicle) |
| --- | --- | --- | --- | --- | --- | --- | --- | --- | --- | --- | --- | --- | --- |
| CC(=O)Oc1ccc(O)cc1S(=O)(=O)O [2A-5HBS, 2-acetoxy-5-hydroxybenzenesulfonic acid] | clearly smaller blue stain; also recorded: remarkably reduced dye extravasation | significantly reduced the percentage of the area stained in blue; also recorded: significantly reduced dermatitis extent | keep the acetoxyl groups in positions 2, 5 and, 2 and 5, respectively | located at a site very close to the site that, as described, is occupied by the 2,5-dihydroxybenzenesulfonic acid |  |  |  |  |  |  |  |  |  |
| CC(=O)Oc1ccc(O)c(S(=O)(=O)O)c1 [5A-2HBS, 5-acetoxy-2-hydroxybenzenesulfonic acid] | notably reduced; also recorded: remarkably reduced dye extravasation | significantly reduced the percentage of the area stained in blue | keep the acetoxyl groups in positions 2, 5 and, 2 and 5, respectively | located at a site very close to the site that, as described, is occupied by the 2,5-dihydroxybenzenesulfonic acid |  |  |  |  |  |  |  |  |  |
| CC(=O)Oc1ccc(OC(C)=O)c(S(=O)(=O)O)c1 [DABS, 2,5-diacetoxybenzenesulfonic acid] |  |  | keep the acetoxyl groups in positions 2, 5 and, 2 and 5, respectively | located at a site very close to the site that, as described, is occupied by the 2,5-dihydroxybenzenesulfonic acid | reduced benzalkonium chloride induced dermatitis; also recorded: milder | significant reduction; also recorded: not observed | reduces the edema and the leukocyte infiltration; also recorded: noticeably milder | reduces the edema; also recorded: not observed | slightly higher | significantly reduces |  |  |  |
| O=S(=O)(O)c1cc(O)ccc1O [DHBS, 2,5-dihydroxybenzenesulfonic acid, reference compound] |  |  |  |  |  |  |  |  |  |  | clearly smaller blue stain; also recorded: remarkably reduced dye extravasation | significantly reduced the percentage of the area stained in blue; also recorded: significantly reduced dermatitis extent | significantly reduced |
